Assay results taken from patent US9969746B2, “Opioid compounds and their uses” (THE UNIVERSITY OF BATH, priority 2013, dated 2018).

Tests used:
[1] = molecular target: T1, MOP (Homo sapiens, UniProt P35372); experiment: biochemical; type: binding; conditions: [3H]DAMGO, membranes of CHO cells with human receptor
T1 construct: expressed in transfected cells; host or cells: CHO cells (membranes)

[2] = molecular target: T2, NOP (Homo sapiens, UniProt P41146); experiment: Binding affinity to human NOP receptor transfected into CHO cells ([3H]N/OFQ)
T2 construct: expressed in transfected cells; host or cells: CHO cells (membranes)

[3] = molecular target: T1, MOP; experiment: [35S]GTPγS binding, MOP; type: biochemical; conditions: 1 h; read-out: % stim MOP
Protocol: (§1) [^35S]GTPγS binding was conducted basically as described by Traynor and Nahorski (Traynor et al., 1995). Cells were scraped from tissue culture dishes into 20 mM Hepes, 1 mM EDTA, then centrifuged at 500×g for 10 min. Cells were resuspended in this buffer and homogenized using a Polytron Homogenizer. The homogenate was centrifuged at 27,000×g for 15 min, and the pellet re suspended in Buffer A, containing: 20 mM Hepes, 10 mM MgCl2, 100 mM NaCl, pH 7.4. The suspension was re centrifuged at 27,000×g and suspended once more in Buffer A. For the binding assay, membranes (8-15 μg protein) were incubated with [^35S]GTPγS (50 pM), GDP (10 μM), and the appropriate compound, in a total volume of 1.0 ml, for 60 min at 25′C. Samples were filtered over glass fiber filters and counted as described for the binding assays. Statistical analysis was conducted using the program Prism®.

[4] = molecular target: T3, KOP (Homo sapiens, UniProt P41145); experiment: biochemical; type: binding; conditions: [3H]U69593, membranes of CHO cells with human receptor
T3 construct: expressed in transfected cells; host or cells: CHO cells (membranes)

[5] = molecular target: T2, NOP; experiment: [35S]GTPγS binding, NOP; type: biochemical; conditions: 1 h; read-out: % stim NOP
Protocol: as §1

[6] = molecular target: T4, KOPr (Homo sapiens, UniProt P41145); experiment: [35S]GTPγS binding, KOPr; type: biochemical
T4 construct: expressed in transfected cells
Protocol: as §1

[7] = system: rhesus monkeys; experiment: Physiological functions of monkeys (respiration, heart rate, blood pressure); type: in vivo; conditions: 0.01 mg/kg s.c.
Description: (§2) These findings illustrate the safe and favorable profile of 11.

[8] = system: rhesus monkeys; experiment: Scratching responses and sedation after intrathecal administration; type: in vivo; conditions: intrathecal 3 μg
Description: as §2

[9] = system: rhesus monkeys; experiment: Operant responding assay (self-administration); type: in vivo
Description: as §2

[10] = system: rhesus monkeys; experiment: Antinociception against acute noxious stimulus (50° C. water); type: in vivo
Description: as §2

[11] = system: carrageenan-induced thermal hyperalgesia; experiment: Carrageenan-induced thermal hyperalgesia (paw withdrawal latency); type: in vivo
Protocol: Compound 11 was tested for its effect on carrageenan-induced thermal hyperalgesia measured by paw withdrawal latency (FIG. 1a) and anti-hyperalgesic effect (FIG. 1b).

T4 sequence (P41145 whole entry): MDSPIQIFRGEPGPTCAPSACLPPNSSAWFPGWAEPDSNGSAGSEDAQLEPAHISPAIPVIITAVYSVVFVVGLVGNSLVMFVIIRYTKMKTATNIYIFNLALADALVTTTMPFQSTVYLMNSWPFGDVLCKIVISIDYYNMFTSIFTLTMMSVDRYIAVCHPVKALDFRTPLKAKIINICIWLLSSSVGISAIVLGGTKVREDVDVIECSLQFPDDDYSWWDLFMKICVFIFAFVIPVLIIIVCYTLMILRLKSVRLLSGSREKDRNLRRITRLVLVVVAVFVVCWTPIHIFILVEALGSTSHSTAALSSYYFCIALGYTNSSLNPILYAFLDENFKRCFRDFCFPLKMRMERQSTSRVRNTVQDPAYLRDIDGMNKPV
T3 sequence (P41145 whole entry): as above
T1 sequence (P35372 whole entry): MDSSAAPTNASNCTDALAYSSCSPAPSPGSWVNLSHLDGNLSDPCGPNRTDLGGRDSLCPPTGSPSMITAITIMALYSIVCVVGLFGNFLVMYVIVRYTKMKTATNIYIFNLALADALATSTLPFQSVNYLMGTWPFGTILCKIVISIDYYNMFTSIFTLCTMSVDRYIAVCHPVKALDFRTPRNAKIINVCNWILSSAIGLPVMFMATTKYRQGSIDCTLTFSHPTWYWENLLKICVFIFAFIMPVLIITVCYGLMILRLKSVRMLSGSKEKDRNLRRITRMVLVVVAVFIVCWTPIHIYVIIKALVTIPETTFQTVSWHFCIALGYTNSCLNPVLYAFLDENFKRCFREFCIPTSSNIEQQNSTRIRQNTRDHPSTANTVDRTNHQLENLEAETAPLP
T2 sequence (P41146 whole entry): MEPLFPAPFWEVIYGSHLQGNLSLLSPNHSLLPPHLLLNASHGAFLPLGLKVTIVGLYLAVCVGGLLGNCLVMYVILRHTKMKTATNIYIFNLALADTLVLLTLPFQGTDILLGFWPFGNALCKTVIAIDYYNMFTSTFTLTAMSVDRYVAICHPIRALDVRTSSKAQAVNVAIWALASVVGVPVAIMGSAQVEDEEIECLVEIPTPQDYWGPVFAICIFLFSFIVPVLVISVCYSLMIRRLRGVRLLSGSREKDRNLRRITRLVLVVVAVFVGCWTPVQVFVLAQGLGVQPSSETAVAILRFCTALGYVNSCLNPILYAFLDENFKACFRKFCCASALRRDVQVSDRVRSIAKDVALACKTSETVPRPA

| SMILES | Ki [1] | Ki [2] | Emax [3] | Ki [4] | Emax [5] | stimulation of the KOPr [6] | also measured |
| --- | --- | --- | --- | --- | --- | --- | --- |
| O=C(Cc1ccccc1)O[C@@]12CCC(=O)[C@@H]3Oc4c(O)ccc5c4[C@@]31CCN(CC1CC1)C2C5 [Compound 1, 14β-phenylacetyl-17-cyclopropylmethyl-7,8-dihydronoroxmorphinone] | 0.86 ± 0.18 nM | 127 ± 17 nM | 32% | 1.14 ± 0.46 nM | 28% |  |  |
| O=C(Cc1ccc2c(c1)OCO2)O[C@@]12CCC(=O)[C@@H]3Oc4c(O)ccc5c4[C@@]31CCN(CC1CC1)C2C5 [Compound 6, 14β-(3′,4′-dioxymethylenephenylacetyl)-7-cyclopropylmethyl-7,8-dihydronoroxymorphinone] | 0.99 ± 0.35 nM | 94.3 ± 28 nM | 12% | 1.2 ± 0.42 nM | 44% |  |  |
| Cc1ccc(CC(=O)O[C@@]23CCC(=O)[C@@H]4Oc5c(O)ccc6c5[C@@]42CCN(CC2CC2)C3C6)cc1 [Compound 2, 14β-(4′-methylphenylacetyl)-17-cyclopropylmethyl-7,8-dihydronoroxymorphinone] | 1.87 ± 0.09 nM | 36.3 ± 4.2 nM | 35% | 1.56 ± 0.28 nM | 22% |  |  |
| O=C(Cc1ccc(Cl)cc1)O[C@@]12CCC(=O)[C@@H]3Oc4c(O)ccc5c4[C@@]31CCN(CC1CC1)C2C5 [Compound 9, 14β-(4′-chlorophenylacetyl)-17-cyclopropylmethyl-7,8-dihydronoroxymorphinone] | 1.78 ± 0.03 nM | 51.3 ± 14 nM | 8.2% | 3.95 ± 0.59 nM | 19% |  |  |
| O=C(CCc1ccccc1)O[C@@]12CCC(=O)[C@@H]3Oc4c(O)ccc5c4[C@@]31CCN(CC1CC1)C2C5 [Compound 11, 14β-Phenylpropanoyl-17-cyclopropylmethyl-7,8-dihydronoroxymorphinone] | 0.86 ± 0.23 nM | 14.8 ± 0.94 nM | 18% | 10.5 ± 0.17 nM | 34% | no stimulation | bradycardia and hypotension [7]: no bradycardia and hypotension; respiratory depression [7]: no respiratory depression; scratching responses [8]: without eliciting scratching responses; signs of sedation ([8]; during test period): did not show any signs of sedation; self-administration (abuse liability) [9]: did not self-administer; antinociceptive effect ([10]; 0.01 mg/kg s.c., rhesus monkeys): full antinociceptive effects; antinociceptive effect ([10]; intrathecal 3 μg, monkeys): full antinociceptive effects; duration of full antinociceptive effects ([10]; intrathecal 3 μg, monkeys): 24 h; duration of antinociception ([10]; s.c. 0.001-0.01 mg/kg, rhesus monkeys): ~24 h; antinociception against acute noxious stimulus (50° C. water) ([10]; s.c. 0.001-0.01 mg/kg, rhesus monkeys, pilot experiments): dose-dependently produced long lasting antinociception; reversal of 11-induced reversal of thermal hyperalgesia by pretreatment with NOP receptor antagonist J113397 ([11]; J113397 pretreatment): partially reverse; effect on carrageenan-induced thermal hyperalgesia (paw withdrawal latency, anti-hyperalgesic effect) ([11]; intrathecal): efficacious and long acting; reversal of 11-induced reversal of thermal hyperalgesia by pretreatment with MOP receptor antagonist naltrexone ([11]; naltrexone pretreatment): partially reverse |
| COc1cccc(CC(=O)O[C@@]23CCC(=O)[C@@H]4Oc5c(O)ccc6c5[C@@]42CCN(CC2CC2)C3C6)c1 [Compound 5, 14β-(3′-methoxyphenylacetyl)-17-cyclopropylmethyl-7,8-dihydronoroxymorphinone] | 1.1 ± 0.08 nM | 50.1 ± 2.7 nM | 11% | 1.44 ± 0.33 nM | 36% |  |  |
| Cc1cccc(CCC(=O)O[C@@]23CCC(=O)[C@@H]4Oc5c(O)ccc6c5[C@@]42CCN(CC2CC2)C3C6)c1 [Compound 15, 14β-(3′-methylphenylpropanoyl)-17-cyclopropylmethyl-7,8-dihydronoroxymorphinone] | 0.91 ± 0.1 nM | 37.7 ± 2.6 nM | 23% | 1.56 ± 0.2 nM |  |  |  |
| O=C(Cc1ccccc1F)O[C@@]12CCC(=O)[C@@H]3Oc4c(O)ccc5c4[C@@]31CCN(CC1CC1)C2C5 [Compound 8, 14β-(2′-fluorophenylacetyl)-17-cyclopropylmethyl-7,8-dihydronoroxymorphinone] | 2.59 ± 1.1 nM | 69.7 ± 2.4 nM | 28% | 4.55 ± 0.7 nM | 15% |  |  |
| COc1cccc(CCC(=O)O[C@@]23CCC(=O)[C@@H]4Oc5c(O)ccc6c5[C@@]42CCN(CC2CC2)C3C6)c1 [Compound 13, 14β-(3′-methoxyphenylpropanoyl)-17-cyclopropylmethyl-78-dihydronoroxymorphinone] | 1.14 ± 0.18 nM | 154 ± 11.5 nM |  | 1.24 ± 0.15 nM | 46% | no stimulation |  |
| Cc1ccccc1CCC(=O)O[C@@]12CCC(=O)[C@@H]3Oc4c(O)ccc5c4[C@@]31CCN(CC1CC1)C2C5 [Compound 19, 14β-(2′-methylphenylpropanoyl)-17-cyclopropylmethyl-7,8-dihydronoroxymorphinone] | 0.56 ± 0.11 nM | 12.1 ± 2.7 nM | 48% | 0.64 ± 0.1 nM | 33% |  |  |
| O=C(CCc1ccc(Cl)cc1)O[C@@]12CCC(=O)[C@@H]3Oc4c(O)ccc5c4[C@@]31CCN(CC1CC1)C2C5 [Compound 16, 14β-(4′-chlorophenylpropanoyl)-17-cyclopropylmethyl-7,8-dihydronoroxymorphinone] | 0.54 ± 0.11 nM | 45.2 ± 17.5 nM | 21% | 1.34 ± 0.12 nM | 41% | no stimulation |  |
| O=C(CCc1cccc(Cl)c1)O[C@@]12CCC(=O)[C@@H]3Oc4c(O)ccc5c4[C@@]31CCN(CC1CC1)C2C5 [Compound 17, 14β-(3′-chlorophenylpropanoyl)-17-cyclopropylmethyl-7,8-dihydronoroxymorphinone] | 0.39 ± 0.07 nM | 27 ± 4.9 nM | 26% | 0.74 ± 0.05 nM | 22% | no stimulation |  |
| O=C(Cc1ccccc1Cl)O[C@@]12CCC(=O)[C@@H]3Oc4c(O)ccc5c4[C@@]31CCN(CC1CC1)C2C5 [Compound 10, 14β-(2′-chlorophenylacetyl)-17-cyclopropylmethyl-7,8-dihydronoroxymorphinone] | 4.66 ± 1.8 nM | 32.6 ± 2.3 nM | 39% | 1.34 ± 0.5 nM | 50% |  |  |
| Cc1ccc(CCC(=O)O[C@@]23CCC(=O)[C@@H]4Oc5c(O)ccc6c5[C@@]42CCN(CC2CC2)C3C6)cc1 [Compound 18, 14β-(4′-methylphenylpropanoyl)-17-cyclopropylmethyl-7,8-dihydronoroxymorphinone] | 0.78 ± 0.22 nM | 35.8 ± 1.6 nM | 25% | 1.06 ± 0.4 nM | 63% |  |  |
| COc1ccccc1CCC(=O)O[C@@]12CCC(=O)[C@@H]3Oc4c(O)ccc5c4[C@@]31CCN(CC1CC1)C2C5 [Compound 14, 14β-(2′-methoxyphenylpropanoyl)-17-cyclopropylmethyl-7,8-dihydronoroxymorphinone] | 1.67 ± 0.42 nM | 120 ± 20.5 nM |  | 1.24 ± 0.11 nM | 56% | no stimulation |  |
| Cc1cccc(CC(=O)O[C@@]23CCC(=O)[C@@H]4Oc5c(O)ccc6c5[C@@]42CCN(CC2CC2)C3C6)c1 [Compound 4] | 1.91 ± 0.51 nM | 49.9 ± 3.5 nM | 40% | 2.8 ± 0.91 nM | 59% |  |  |
| Cc1ccccc1CC(=O)O[C@@]12CCC(=O)[C@@H]3Oc4c(O)ccc5c4[C@@]31CCN(CC1CC1)C2C5 [Compound 3, 14β-(2′-methylphenylacetyl)-17-cyclopropylmethyl-7,8-dihydronoroxymorphinone] | 3.59 ± 0.86 nM | 44.1 ± 3.1 nM | 42% | 1.69 ± 1.2 nM | 21% |  |  |
| COc1ccccc1CC(=O)O[C@@]12CCC(=O)[C@@H]3Oc4c(O)ccc5c4[C@@]31CCN(CC1CC1)C2C5 [Compound 7, 14β-(2′-methoxyphenylacetyl)-17-cyclopropylmethyl-7,8-dihydronoroxmorphinone] | 3.77 ± 0.9 nM | 62.3 ± 4.9 nM | 37% | 3.52 ± 0.9 nM | 41% |  |  |
| COc1ccc(CCC(=O)O[C@@]23CCC(=O)[C@@H]4Oc5c(O)ccc6c5[C@@]42CCN(CC2CC2)C3C6)cc1 [Compound 12, 14β-(4′-methoxyphenylpropanoyl)-17-cyclopropylmethyl-7,8-dihydronoroxymorphinone] | 0.91 ± 0.12 nM | 766 ± 177 nM |  | 1.96 ± 0.04 nM | 52% | no stimulation |  |
